According to the NIST ThermoML archive (doi:10.1021/je200721d):

Assay: xn = mol fraction of the nth substance listed
Conditions: Liquid, Vibrating tube method

CCCCCCCC [octane] + CCCCCC
Conditions | mass density [kg/m3]
342.93 K, 1000 kPa, x2 = 0.5749 | 640.49
342.93 K, 2000 kPa, x2 = 0.5749 | 641.81
342.93 K, 3000 kPa, x2 = 0.5749 | 643.05
342.93 K, 4000 kPa, x2 = 0.5749 | 644.29
342.93 K, 5000 kPa, x2 = 0.5749 | 645.58
342.93 K, 6000 kPa, x2 = 0.5749 | 646.83
342.93 K, 7000 kPa, x2 = 0.5749 | 648.05
342.93 K, 8000 kPa, x2 = 0.5749 | 649.28
342.93 K, 9000 kPa, x2 = 0.5749 | 650.49
342.93 K, 10000 kPa, x2 = 0.5749 | 651.67
342.93 K, 11000 kPa, x2 = 0.5749 | 652.87
342.93 K, 12000 kPa, x2 = 0.5749 | 654.03
342.93 K, 13000 kPa, x2 = 0.5749 | 655.19
342.93 K, 14000 kPa, x2 = 0.5749 | 656.31
342.93 K, 15000 kPa, x2 = 0.5749 | 657.42
342.93 K, 16000 kPa, x2 = 0.5749 | 658.5
342.93 K, 17000 kPa, x2 = 0.5749 | 659.57
342.93 K, 18000 kPa, x2 = 0.5749 | 660.6
342.93 K, 19000 kPa, x2 = 0.5749 | 661.62
342.93 K, 20000 kPa, x2 = 0.5749 | 662.6
342.93 K, 21000 kPa, x2 = 0.5749 | 663.59
342.93 K, 22000 kPa, x2 = 0.5749 | 664.52
342.93 K, 23000 kPa, x2 = 0.5749 | 665.48
342.93 K, 24000 kPa, x2 = 0.5749 | 666.39
342.93 K, 25000 kPa, x2 = 0.5749 | 667.28
342.94 K, 1000 kPa, x2 = 0.2199 | 655.33
342.94 K, 2000 kPa, x2 = 0.2199 | 656.52
342.94 K, 3000 kPa, x2 = 0.2199 | 657.67
342.94 K, 4000 kPa, x2 = 0.2199 | 658.87
342.94 K, 5000 kPa, x2 = 0.2199 | 660.02
342.94 K, 6000 kPa, x2 = 0.2199 | 661.18
342.94 K, 7000 kPa, x2 = 0.2199 | 662.34
342.94 K, 8000 kPa, x2 = 0.2199 | 663.49
342.94 K, 9000 kPa, x2 = 0.2199 | 664.6
342.94 K, 10000 kPa, x2 = 0.2199 | 665.73
342.94 K, 11000 kPa, x2 = 0.2199 | 666.84
342.94 K, 12000 kPa, x2 = 0.2199 | 667.93
342.94 K, 13000 kPa, x2 = 0.2199 | 669.01
342.94 K, 14000 kPa, x2 = 0.2199 | 670.06
342.94 K, 15000 kPa, x2 = 0.2199 | 671.09
342.94 K, 16000 kPa, x2 = 0.2199 | 672.1
342.94 K, 17000 kPa, x2 = 0.2199 | 673.1
342.94 K, 18000 kPa, x2 = 0.2199 | 674.07
342.94 K, 19000 kPa, x2 = 0.2199 | 675.02
342.94 K, 20000 kPa, x2 = 0.2199 | 675.95
342.94 K, 21000 kPa, x2 = 0.2199 | 676.87
342.94 K, 22000 kPa, x2 = 0.2199 | 677.76
342.94 K, 23000 kPa, x2 = 0.2199 | 678.64
342.94 K, 24000 kPa, x2 = 0.2199 | 679.49
342.94 K, 25000 kPa, x2 = 0.2199 | 680.34
342.98 K, 1000 kPa, x2 = 0.9308 | 619.48
342.98 K, 2000 kPa, x2 = 0.9308 | 620.92
342.98 K, 3000 kPa, x2 = 0.9308 | 622.34
342.98 K, 4000 kPa, x2 = 0.9308 | 623.76
342.98 K, 5000 kPa, x2 = 0.9308 | 625.17
342.98 K, 6000 kPa, x2 = 0.9308 | 626.56
342.98 K, 7000 kPa, x2 = 0.9308 | 627.93
342.98 K, 8000 kPa, x2 = 0.9308 | 629.29
342.98 K, 9000 kPa, x2 = 0.9308 | 630.63
342.98 K, 10000 kPa, x2 = 0.9308 | 631.94
342.98 K, 11000 kPa, x2 = 0.9308 | 633.24
342.98 K, 12000 kPa, x2 = 0.9308 | 634.53
342.98 K, 13000 kPa, x2 = 0.9308 | 635.77
342.98 K, 14000 kPa, x2 = 0.9308 | 637.01
342.98 K, 15000 kPa, x2 = 0.9308 | 638.23
342.98 K, 16000 kPa, x2 = 0.9308 | 639.42
342.98 K, 17000 kPa, x2 = 0.9308 | 640.57
342.98 K, 18000 kPa, x2 = 0.9308 | 641.7
342.98 K, 19000 kPa, x2 = 0.9308 | 642.81
342.98 K, 20000 kPa, x2 = 0.9308 | 643.91
342.98 K, 21000 kPa, x2 = 0.9308 | 644.95
342.98 K, 22000 kPa, x2 = 0.9308 | 645.97
342.98 K, 23000 kPa, x2 = 0.9308 | 646.98
342.98 K, 24000 kPa, x2 = 0.9308 | 647.95
342.98 K, 25000 kPa, x2 = 0.9308 | 648.91
342.99 K, 1000 kPa, x2 = 0.1654 | 657.36
342.99 K, 2000 kPa, x2 = 0.1654 | 658.52
342.99 K, 3000 kPa, x2 = 0.1654 | 659.68
342.99 K, 4000 kPa, x2 = 0.1654 | 660.84
342.99 K, 5000 kPa, x2 = 0.1654 | 662.01
342.99 K, 6000 kPa, x2 = 0.1654 | 663.15
342.99 K, 7000 kPa, x2 = 0.1654 | 664.27
342.99 K, 8000 kPa, x2 = 0.1654 | 665.4
342.99 K, 9000 kPa, x2 = 0.1654 | 666.53
342.99 K, 10000 kPa, x2 = 0.1654 | 667.62
342.99 K, 11000 kPa, x2 = 0.1654 | 668.73
342.99 K, 12000 kPa, x2 = 0.1654 | 669.8
342.99 K, 13000 kPa, x2 = 0.1654 | 670.86
342.99 K, 14000 kPa, x2 = 0.1654 | 671.91
342.99 K, 15000 kPa, x2 = 0.1654 | 672.94
342.99 K, 16000 kPa, x2 = 0.1654 | 673.96
342.99 K, 17000 kPa, x2 = 0.1654 | 674.95
342.99 K, 18000 kPa, x2 = 0.1654 | 675.92
